pKd: −log10 of the molar value.
Columns and labels:
[1] = system: FADD−/− Jurkat cells; experiment: Necroptosis inhibition assay, TNF-α-induced necroptosis (CellTiter-Glo 2.0); assay type: cell-based, human; conditions: TNF-α 15 ng/mL; for Necroptosis inhibition assay (Rescue %) 1 μM: compound 1 μM; for Necroptosis inhibition assay (Rescue %) 10 μM: compound 10 μM
Outline: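 Cmpd 0.1/1/10 μM final, 30 min RT preincubation; TNF-α 15 ng/mL final; 20–24 h, 37° C, 5% CO2. Readout: ATP luminescence (reagent 1:3 in PBS), 0.5 s/well. Cytotoxicity and % necroptosis inhibition calculated from signal.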

[2] = target: T1, MLKL (Homo sapiens, UniProt Q8NB16); experiment: Measurement of binding affinity with MLKL receptor (competitive binding assay, Kd); parameters: made in house; host or cells: HEK 293 cell line (T7 phage in E. coli BL21-derived host is also described)
T1 sequence (Q8NB16 1-471): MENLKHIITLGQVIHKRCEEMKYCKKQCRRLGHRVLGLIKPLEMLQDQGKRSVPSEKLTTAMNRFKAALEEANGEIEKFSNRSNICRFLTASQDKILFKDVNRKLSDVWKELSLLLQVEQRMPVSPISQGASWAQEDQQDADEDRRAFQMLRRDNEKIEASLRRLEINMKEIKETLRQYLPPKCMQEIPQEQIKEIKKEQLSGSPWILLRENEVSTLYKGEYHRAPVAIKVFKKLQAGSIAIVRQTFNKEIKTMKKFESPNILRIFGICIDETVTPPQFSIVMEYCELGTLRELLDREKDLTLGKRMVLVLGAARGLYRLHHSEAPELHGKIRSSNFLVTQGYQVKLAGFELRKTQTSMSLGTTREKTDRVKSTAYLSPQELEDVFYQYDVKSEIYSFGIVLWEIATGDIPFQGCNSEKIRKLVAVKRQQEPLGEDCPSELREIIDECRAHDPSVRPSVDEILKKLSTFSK
Outline: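 Competition binding of kinase tagged with DNA for qPCR detection, expressed in HEK 293 cells, against immobilized ligand on beads. Final DMSO 0.9%. Kd derived from kinase amount in eluates measured by qPCR.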

With `Nc1ncc(-c2cnn(C3CCN(CCCCCCCCCCNC(=O)COc4cccc5c4C(=O)N(C4CCC(=O)NC4=O)C5=O)CC3)c2)nc1C(=O)O[C@@H](C(=O)Nc1ccc(F)cc1)c1ccccc1` (stereo partly drawn) [TDH-163, (R)-2-((4-fluorophenyl)amino)-2-oxo-1-phenylethyl 3-amino-6-(1-(1-(10-(2-((2-(2,6-dioxopiperidin-3-yl)-1,3-dioxoisoindolin-4-yl)oxy)acetamido)decyl)piperidin-4-yl)-1H-pyrazol-4-yl)pyrazine-2-carboxylate] the “Necroptosis inhibition assay (Rescue %) 1 μM” value [1] was 30.03%, the “Necroptosis inhibition assay (Rescue %) 10 μM” value [1] was 28.56% and the pKd [2] was 7.35.

In the case of `Nc1ncc(-c2cnn(C3CCN(CCCCCCNc4ccc5c(c4)C(=O)N(C4CCC(=O)NC4=O)C5=O)CC3)c2)nc1C(=O)O[C@@H](C(=O)Nc1ccc(F)cc1)c1ccccc1` (stereo partly drawn) [TDH-120, (R)-2-((4-fluorophenyl)amino)-2-oxo-1-phenylethyl 3-amino-6-(1-(1-(6-((2-(2,6-dioxopiperidin-3-yl)-1,3-dioxoisoindolin-5-yl)amino)hexyl)piperidin-4-yl)-1H-pyrazol-4-yl)pyrazine-2-carboxylate], the “Necroptosis inhibition assay (Rescue %) 1 μM” value [1] was 10.65% and the pKd [2] was 8.77.

For `Nc1ncc(C2=CCN(C(=O)COCCOCCNC(=O)C3CN(c4cccc5c4C(=O)N(C4CCC(=O)NC4=O)C5=O)C3)CC2)cc1C(=O)O[C@@H](C(=O)Nc1ccc(F)cc1)c1ccccc1` (stereo partly drawn) [TDH-086, (R)-2-((4-fluorophenyl)amino)-2-oxo-1-phenylethyl 6-amino-1′-(2-(2-(2-(1-(2-(2,6-dioxopiperidin-3-yl)-1,3-dioxoisoindolin-4-yl)azetidine-3-carboxamido)ethoxy)ethoxy)acetyl)-1′,2′, 3′,6′-tetrahydro-[3,4′-bipyridine]-5-carboxylate], the “Necroptosis inhibition assay (Rescue %) 1 μM” value [1] was 2.91% and the pKd [2] was 7.39.

`Nc1ncc(-c2cnn(C3CCN(CC4CCN(C(=O)C5CCN(c6ccc7c(c6)C(=O)N(C6CCC(=O)NC6=O)C7=O)CC5)CC4)CC3)c2)nc1C(=O)N[C@@H](C(=O)Nc1ccc(F)cc1)c1ccccc1` (stereo partly drawn) [TDH-210, 3-amino-6-(1-(1-((1-(1-(2-(2,6-dioxopiperidin-3-yl)-1,3-dioxoisoindolin-5-yl)piperidine-4-carbonyl)piperidin-4-yl)methyl)piperidin-4-yl)-1H-pyrazol-4-yl)-N-((R)-2-((4-fluorophenyl)amino)-2-oxo-1-phenylethyl)pyrazine-2-carboxamide] was tested, and the “Necroptosis inhibition assay (Rescue %) 1 μM” value [1] was 7.5%, the “Necroptosis inhibition assay (Rescue %) 10 μM” value [1] was 10.08% and the pKd [2] was 6.52.

With `Nc1ncc(C2=CCN(C(=O)COCCOCCNC(=O)C3CCN(c4cccc5c4C(=O)N(C4CCC(=O)NC4=O)C5=O)CC3)CC2)cc1C(=O)O[C@@H](C(=O)Nc1ccc(F)cc1)c1ccccc1` (stereo partly drawn) [TDH-088, (R)-2-((4-fluorophenyl)amino)-2-oxo-1-phenylethyl 6-amino-1′-(2-(2-(2-(1-(2-(2,6-dioxopiperidin-3-yl)-1,3-dioxoisoindolin-4-yl)piperidine-4-carboxamido)ethoxy)ethoxy)acetyl)-1′,2′,3′,6′-tetrahydro-[3,4′-bipyridine]-5-carboxylate] the “Necroptosis inhibition assay (Rescue %) 1 μM” value [1] was 4.62% and the pKd [2] was 7.48.

For `Nc1ncc(-c2cnn(C3CCN(CCCCCCCCCCNC(=O)CNc4cccc5c4C(=O)N(C4CCC(=O)NC4=O)C5=O)CC3)c2)nc1C(=O)O[C@@H](C(=O)Nc1ccc(F)cc1)c1ccccc1` (stereo partly drawn) [TDH-161, (R)-2-((4-fluorophenyl)amino)-2-oxo-1-phenylethyl 3-amino-6-(1-(1-(10-(2-((2-(2,6-dioxopiperidin-3-yl)-1,3-dioxoisoindolin-4-yl)amino)acetamido)decyl)piperidin-4-yl)-1H-pyrazol-4-yl)pyrazine-2-carboxylate], the “Necroptosis inhibition assay (Rescue %) 1 μM” value [1] was 25.81%, the “Necroptosis inhibition assay (Rescue %) 10 μM” value [1] was 35.81% and the pKd [2] was 7.54.

For `Cc1ncsc1-c1ccc(CNC(=O)[C@@H]2C[C@@H](O)CN2C(=O)[C@@H](NC(=O)CCC(=O)N2CCC(CN3CCC(n4cc(-c5cnc(N)c(C(=O)O[C@@H](C(=O)Nc6ccc(F)cc6)c6ccccc6)n5)cn4)CC3)CC2)C(C)(C)C)cc1` [TDH-212, (R)-2-((4-fluorophenyl)amino)-2-oxo-1-phenylethyl 3-amino-6-(1-(1-((1-(4-(((S)-1-((2S,4R)-4-hydroxy-2-((4-(4-methylthiazol-5-yl)benzyl)carbamoyl)pyrrolidin-1-yl)-3,3-dimethyl-1-oxobutan-2-yl)amino)-4-oxobutanoyl)piperidin-4-yl)methyl)piperidin-4-yl)-1H-pyrazol-4-yl)pyrazine-2-carboxylate], the “Necroptosis inhibition assay (Rescue %) 1 μM” value [1] was 24.34%, the “Necroptosis inhibition assay (Rescue %) 10 μM” value [1] was 49.14% and the pKd [2] was 7.96.

`Nc1ncc(-c2ccc(N3CCN(CC4CCN(C(=O)CNc5cccc6c5C(=O)N(C5CCC(=O)NC5=O)C6=O)CC4)CC3)nc2)nc1C(=O)OC(C(=O)Nc1ccc(F)cc1)c1ccccc1` (stereo not drawn) [TDH-232, 2-((4-fluorophenyl)amino)-2-oxo-1-phenylethyl 3-amino-6-(6-(4-((1-((2-(2,6-dioxopiperidin-3-yl)-1,3-dioxoisoindolin-4-yl)glycyl)piperidin-4-yl)methyl)piperazin-1-yl)pyridin-3-yl)pyrazine-2-carboxylate] was tested, and the “Necroptosis inhibition assay (Rescue %) 1 μM” value [1] was 3.46% and the pKd [2] was 6.59.

In the case of `Nc1ncc(-c2cnn(C3CCN(CCOCCOCCNC(=O)CNc4ccc5c(c4)C(=O)N(C4CCC(=O)NC4=O)C5=O)CC3)c2)nc1C(=O)N[C@@H](C(=O)Nc1ccc(F)cc1)c1ccccc1` (stereo partly drawn) [TDH-218, 3-amino-6-(1-(1-(2-(2-(2-(2-((2-(2,6-dioxopiperidin-3-yl)-1,3-dioxoisoindolin-5-yl)amino)acetamido)ethoxy)ethoxy)ethyl)piperidin-4-yl)-1H-pyrazol-4-yl)-N-((R)-2-((4-fluorophenyl)amino)-2-oxo-1-phenylethyl)pyrazine-2-carboxamide], the “Necroptosis inhibition assay (Rescue %) 1 μM” value [1] was 27.92%, the “Necroptosis inhibition assay (Rescue %) 10 μM” value [1] was 40.68% and the pKd [2] was 7.34.

`Nc1ncc(-c2ccc(N3CCN(CC4CCN(C(=O)C5CCN(c6ccc7c(c6)C(=O)N(C6CCC(=O)NC6=O)C7=O)CC5)CC4)CC3)nc2)nc1C(=O)OC(C(=O)Nc1ccc(F)cc1)c1ccccc1` (stereo not drawn) [TDH-231, 2-((4-fluorophenyl)amino)-2-oxo-1-phenylethyl 3-amino-6-(6-(4-((1-(1-(2-(2,6-dioxopiperidin-3-yl)-1,3-dioxoisoindolin-5-yl)piperidine-4-carbonyl)piperidin-4-yl)methyl)piperazin-1-yl)pyridin-3-yl)pyrazine-2-carboxylate] was tested, and the “Necroptosis inhibition assay (Rescue %) 1 μM” value [1] was 15.47%, the “Necroptosis inhibition assay (Rescue %) 10 μM” value [1] was 11.4% and the pKd [2] was 6.85.

For `Nc1ncc(C2=CCN(C(=O)CCCCCNC(=O)CNc3cccc4c3C(=O)N(C3CCC(=O)NC3=O)C4=O)CC2)cc1C(=O)O[C@@H](C(=O)Nc1ccc(F)cc1)c1ccccc1` (stereo partly drawn) [TDH-079, (R)-2-((4-fluorophenyl)amino)-2-oxo-1-phenylethyl 6-amino-1′-(6-(2-((2-(2,6-dioxopiperidin-3-yl)-1,3-dioxoisoindolin-4-yl)amino)acetamido)hexanoyl)-1′,2′,3′,6′-tetrahydro-[3,4′-bipyridine]-5-carboxylate], the “Necroptosis inhibition assay (Rescue %) 10 μM” value [1] was 0.94% and the pKd [2] was 7.35.

With `Nc1ncc(-c2cnn(C3CCN(CCOCCOCCNC(=O)C4CN(c5ccc6c(c5)C(=O)N(C5CCC(=O)NC5=O)C6=O)C4)CC3)c2)nc1C(=O)O[C@@H](C(=O)Nc1ccc(F)cc1)c1ccccc1` (stereo partly drawn) [TDH-116, (R)-2-((4-fluorophenyl)amino)-2-oxo-1-phenylethyl 3-amino-6-(1-(1-(2-(2-(2-(1-(2-(2,6-dioxopiperidin-3-yl)-1,3-dioxoisoindolin-5-yl)azetidine-3-carboxamido)ethoxy)ethoxy)ethyl)piperidin-4-yl)-1H-pyrazol-4-yl)pyrazine-2-carboxylate] the “Necroptosis inhibition assay (Rescue %) 1 μM” value [1] was 16.8%, the “Necroptosis inhibition assay (Rescue %) 10 μM” value [1] was 42.8% and the pKd [2] was 8.70.

For `Cl.Nc1ncc(-c2cnn(C3CCNCC3)c2)nc1C(=O)N[C@@H](C(=O)Nc1ccc(F)cc1)c1ccccc1` [TDH-099, (R)-3-amino-N-(2-((4-fluorophenyl)amino)-2-oxo-1-phenylethyl)-6-(1-(piperidin-4-yl)-1H-pyrazol-4-yl)pyrazine-2-carboxamide hydrochloride], the “Necroptosis inhibition assay (Rescue %) 1 μM” value [1] was 18.18% and the pKd [2] was 7.96.
